The record followed here is patent publication US7638535B2, “4-(aminomethyl)-piperidine benzamides as 5HT4-antagonists” (Janssen Pharmaceutica N.V., priority 2003, dated 2009).

One data set deals with T1, h5-HT4b (Homo sapiens, UniProt Q13639).
T1 construct: expressed in transfected cells; host or cells: HEK 293 (clone 9), membrane preparation
Nature of the data set: 5HT4 antagonism: [3H]GR113808 binding to membranes of h5-HT4b-HEK 293 clone 9 cells. Particulars: displacement of [3H]GR113808 0.1 nM, h5-HT4b-HEK 293 membranes, 30 min at 25° C.; read-out: pIC50 (5HT4 antagonistic data) (converted). A digest of the protocol:
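Membranes from h5-HT4b-HEK 293 clone 9 cells were incubated with [3H]GR113808 (0.1 nM as added) in 50 mM HEPES-NaOH pH 7.4 for 30 min at 25 °C. Non-specific binding was defined with a 5-HT4 agonist. Bound radioligand was separated by filtration over PEI-soaked GF/B filters.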

Data set [1] in a line: Metabolic stability: % metabolism after 60 minutes incubation with active liver microsomes. It counts as in vitro ADME. The note with it: compound 5 μM, microsomes 1 mg/ml, NADPH-generating system, 60 minutes at 37 degrees Celsius. As to the method:
Sub-cellular tissue preparations were made according to Gorrod et al. (Xenobiotica 5:453-462, 1975) by centrifugal separation after mechanical homogenization of tissue. Liver tissue was rinsed in ice-cold 0.1 M Tris-HCl (pH 7.4) buffer to wash excess blood. Tissue was then blotted dry, weighed and chopped coarsely using surgical scissors. The tissue pieces were homogenized in 3 volumes of ice-cold 0.1 M phosphate buffer (pH 7.4).
Tissue homogenates were centrifuged at 9000×g for 20 minutes at 4° C. The resulting supernatant was stored at −80° C. and is designated ‘S9’.
The S9 fraction can be further centrifuged at 100.000×g for 60 minutes (4° C.). The resulting supernatant was carefully aspirated, aliquoted and designated ‘cytosol’. The pellet was re-suspended in 0.1 M phosphate buffer (pH 7.4) in a final volume of 1 ml per 0.5 g original tissue weight and designated ‘microsomes’.
All sub-cellular fractions were aliquoted, immediately frozen in liquid nitrogen and stored at −80° C. until use.
For the samples to be tested, the incubation mixture contained PBS (0.1M), compound (5 μM), microsomes (1 mg/ml) and a NADPH-generating system (0.8 mM glucose-6-phosphate, 0.8 mM magnesium chloride and 0.8 Units of glucose-6-phosphate dehydrogenase). Control samples contained the same material but the microsomes were replaced by heat inactivated (10 minutes at 95 degrees Celsius) microsomes. Recovery of the compounds in the control samples was always 100%.
The mixtures were preincubated for 5 minutes at 37 degrees Celsius. The reaction was started at time point zero (t=0) by addition of 0.8 mM NADP and the samples were incubated for 60 minutes (t=60). The reaction was terminated by the addition of 2 volumes of DMSO. Then the samples were centrifuged for 10 minutes at 900×g and the supernatants were stored at room temperature for no longer as 24 hours before analysis. All incubations were performed in duplo. Analysis of the supernatants was performed with LC-MS analysis. Elution of the samples was performed on a Xterra MS C18 (50×4.6 mm, 5 μm, Waters, US). An Alliance 2790 (Supplier: Waters, US) HPLC system was used. Elution was with buffer A (25 mM ammoniumacetate (pH 5.2) in H2O/acetonitrile (95/5)), solvent B being acetonitrile and solvent C methanol at a flow rate of 2.4 ml/min. The gradient employed was increasing the organic phase concentration from 0% over 50% B and 50% C in 5 min up to 100% B in 1 minute in a linear fashion and organic phase concentration was kept stationary for an additional 1.5 minutes. Total injection volume of the samples was 25 μl.
A Quatro triple quadrupole mass spectrometer fitted with and ESP source was used as detector. The source and the desolvation temperature were set at 120 and 350° C. respectively and nitrogen was used as nebuliser and drying gas. Data were acquired in positive scan mode (single ion reaction). Cone voltage was set at 10 V and the dwell time was 1 second.
Metabolic stability was expressed as % metabolism of the compound after 60 minutes (equation given as example) of incubation in the presence of active microsomes (E(act))

T1 sequence (Q13639 whole entry): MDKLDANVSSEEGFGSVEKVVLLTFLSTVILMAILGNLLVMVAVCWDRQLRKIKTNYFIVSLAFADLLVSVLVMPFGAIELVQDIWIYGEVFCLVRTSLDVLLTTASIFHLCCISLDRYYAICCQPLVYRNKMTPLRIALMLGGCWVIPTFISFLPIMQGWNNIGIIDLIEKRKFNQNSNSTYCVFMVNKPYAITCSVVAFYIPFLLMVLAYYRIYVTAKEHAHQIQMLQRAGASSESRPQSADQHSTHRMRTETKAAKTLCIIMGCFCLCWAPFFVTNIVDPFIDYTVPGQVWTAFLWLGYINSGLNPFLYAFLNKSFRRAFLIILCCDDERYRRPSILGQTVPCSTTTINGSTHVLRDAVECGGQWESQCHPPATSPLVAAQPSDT

`CNCCCN1CC[C@@H](CNC(=O)c2cc(NC)cc3c2OCCCO3)[C@H](O)C1` (hydrate or solvate) [compound 81] returned a melting point greater than 130 °C.

The compound `COCCCCN1CC[C@@H](CNC(=O)c2cc(N)cc3c2OCCCO3)[C@H](O)C1` [compound 1] displayed a melting point of 174 °C. Further, the IC50 on h5-HT4b is 49 nM.

With `CNc1cc2c(c(C(=O)NC[C@@H]3CCN(CCCO)C[C@H]3O)c1)OCCCO2` [compound 2], the melting point turned out to be 150 °C. The IC50 on h5-HT4b was 525 nM. Turning to `CCCCN1CC[C@@H](CNC(=O)c2cc(N)c(Cl)c3c2OCCO3)[C@H](O)C1` [compound 11], the melting point was greater than 110 °C. Also, on h5-HT4b, the IC50 was 5.75 nM. In turn, `CNc1cc2c(c(C(=O)NC[C@@H]3CCN(CCCC(=O)O)C[C@H]3O)c1)OCCO2` [compound 16] registered a melting point of 240 °C. Moreover, the IC50 at h5-HT4b was 617 nM. Taken in the same sequence, the figures for `CNc1cc(C(=O)NC[C@@H]2CCN(CCCOC)C[C@H]2O)c2c(c1Cl)OCCO2` [compound 26] were 106 to 108 °C and 19.1 nM. The corresponding values for `CNc1cc2c(c(C(=O)NC[C@@H]3CCN(CCOC)C[C@H]3O)c1)OCCCO2` [compound 33] are 135 °C and 186 nM.

`CC(=O)CCCN1CC[C@@H](CNC(=O)c2cc(N)c(Cl)c3c2OCCO3)[C@H](O)C1` [compound 44] registered a melting point of 130 °C. Moreover, on h5-HT4b, the IC50 is 22.9 nM.

`CS(=O)(=O)NCCN1CC[C@@H](CNC(=O)c2cc(N)c(Cl)c3c2OCCO3)[C@H](O)C1` [compound 63] displayed a melting point of 180 °C. Further, the IC50 on h5-HT4b was 69.2 nM. `Cc1nccnc1NCCN1CC[C@@H](CNC(=O)c2cc(N)c(Cl)c3c2OCCO3)[C@H](O)C1` [compound 68] registered a melting point of 100 °C. Further, the IC50 at h5-HT4b is 30.2 nM. Compound `CCCCN1CC[C@@H](CNC(=O)c2cc(N)cc3c2OCCO3)[C@H](O)C1` [compound 107] returned a melting point greater than 160 °C. Besides, on h5-HT4b, the IC50 is 5.5 nM. The corresponding values for `CNc1cc2c(c(C(=O)NC[C@@H]3CCN(CCCOC)C[C@H]3O)c1)OCCCO2` [compound 113] are 126 °C and 126 nM. For the compound `Cc1cc2c(c(C(=O)NC[C@@H]3CCN(CC4CCCO4)C[C@H]3O)c1)OCCCO2` (stereo partly drawn) [compound 186], the IC50 on h5-HT4b is 5.01 nM. For the same compound, the “% metabolised compound (compounds of present invention)” value (from here on “% metabolised compound”) in data set [1] is given as 0%. Regarding `COc1cc2c(c(C(=O)NC[C@@H]3CCN(CCC4OCCO4)C[C@H]3O)c1)OCCCO2` [compound 187], at h5-HT4b, the IC50 was 11.5 nM. For the same compound, in data set [1], the “% metabolised compound” value is listed as 18%. In turn, `Cc1cc2c(c(C(=O)NC[C@@H]3CCN(CCCCNS(C)(=O)=O)C[C@H]3O)c1)OCCCO2` [compound 193] showed a melting point of 134 °C. For the same compound, at h5-HT4b, the IC50 was 1.69 nM.

`Cc1cc2c(c(C(=O)NC[C@@H]3CCN(CCCC(N)=O)C[C@H]3O)c1)OCCCO2` [compound 197] had a melting point of 136 °C. The compound `COCCCN1CC[C@@H](CNC(=O)c2cc(C)cc3c2OCCCO3)[C@H](O)C1` [compound 200] came in with a melting point of 108 °C. Besides, the IC50 at h5-HT4b is 0.955 nM. For the same compound, in data set [1], the “% metabolised compound” value is recorded as 15%. As for `COCCCN1CC[C@@H](CNC(=O)c2cc(C#N)cc3c2OCCCO3)[C@H](O)C1` [compound 202], the IC50 at h5-HT4b was 4.37 nM. For the same compound, the “% metabolised compound” value in data set [1] is given as 8%.

On to `Cc1cc2c(c(C(=O)NC[C@@H]3CCN(CCOCCO)C[C@H]3O)c1)OCCCO2` [compound 211], for which the IC50 on h5-HT4b was 2.95 nM. The “% metabolised compound” value in data set [1] was 13%.

As for `Cc1cc2c(c(C(=O)NC[C@@H]3CCN(CCCCO)C[C@H]3O)c1)OCCCO2` [compound 225], at h5-HT4b, the IC50 was 0.759 nM. For the same compound, the “% metabolised compound” value in data set [1] is on record as 14%. Turning to `Cc1cc2c(c(C(=O)NC[C@@H]3CCN(CCCC4(C)OCCO4)C[C@H]3O)c1)OCCCO2` [compound 227], at h5-HT4b, the IC50 is 0.501 nM. Also, the “% metabolised compound” value in data set [1] is on record as 24%. With `Cc1cc2c(c(C(=O)NC[C@@H]3CCN(CCCCO)C[C@H]3O)c1)OCCO2` [compound 228], the IC50 on h5-HT4b was 0.398 nM. For the same compound, the “% metabolised compound” value in data set [1] is 6%. As for `CC(=O)CCCN1CC[C@@H](CNC(=O)c2cc(C)cc3c2OCCCO3)[C@H](O)C1` [compound 229], the IC50 at h5-HT4b was 0.55 nM. For the same compound, in data set [1], the “% metabolised compound” value is 12%. The compound `Cc1cc2c(c(C(=O)NC[C@@H]3CCN(CCCC(=O)N4CCN(C)CC4)C[C@H]3O)c1)OCCCO2` [compound 238] had a melting point greater than 112 °C. The IC50 at h5-HT4b is 0.851 nM. Turning to `N#CCCCN1CC[C@@H](CNC(=O)c2cc(C#N)cc3c2OCCO3)[C@H](O)C1` [compound 246], the IC50 at h5-HT4b was 12.6 nM. Besides, the “% metabolised compound” value in data set [1] was determined as 7%. Taken in the same sequence, the figures for `COCCCN1CC[C@@H](CNC(=O)c2cc(C#N)cc3c2OCCO3)[C@H](O)C1` [compound 247] were 3.98 nM and 12%.
